These results are taken from PubChem BioAssay AID1194 (EPA DSSTox, 2008).

Each structure is given as a SMILES string. Calls of active or inactive are those of the source.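 Rule for the calls: active = chemicals rated mutagenic or weakly mutagenic in the Salmonella bacterial test by one literature review, or positive overall by another; inconclusive = no clear call, values can overlap the other calls; inactive = the rest.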

For the data set, the system named is Salmonella typhimurium Ames mutagenicity, literature compiled. Nature of the data set: DSSTox (CPDBAS) Carcinogenic Potency Database Salmonella Mutagenicity. Summed up: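 Calls derive from published evaluations rather than new testing; overall "positive" in EPA Gene-Tox, or "mutagenic"/"weakly mutagenic" per Zeiger, counts as active.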
Regarding `OC(c1ccc(Cl)cc1)(c1ccc(Cl)cc1)C(Cl)(Cl)Cl`, the outcome was “inactive; active”. In the case of `BrC(Br)Br` it was “active”; in that of `ClC(Cl)(Cl)C(Cl)(Cl)Cl`, “inactive; active”. In the case of `CCN(CC)C(=O)c1cccc(C)c1` it was “inactive; active”; in that of `Cc1cc(O)c(C(C)(C)C)cc1Sc1cc(C(C)(C)C)c(O)cc1C`, “inactive; active”; in that of `CCCCN(N=O)C(N)=O`, “active”. In the case of `O=C1C2CC=CCC2C(=O)N1SC(Cl)(Cl)Cl` (stereo not given) it was “active”; in that of `C/C=C/c1ccc2c(c1)OCO2`, “inactive; active”; in that of `CCN(CC)C(=S)S[Te](SC(=S)N(CC)CC)(SC(=S)N(CC)CC)SC(=S)N(CC)CC`, “inactive”.

Regarding `NC(=O)N(CC(=O)O)N=O`, the outcome was inactive. In the case of `CCOC(=O)CC(SP(=S)(OC)OC)C(=O)OCC` (stereo not given) it was “inactive”. For `CN(C)C(=O)Nc1ccc(Cl)cc1`, the outcome is “inactive; active”. In the case of `O=NN1CCCC1` it was “active”; in that of `CCOP(=S)(OCC)Oc1nc(Cl)c(Cl)cc1Cl`, “inactive”. In the case of `C=CCc1ccc2c(c1)OCO2` it was “inactive; active”. In the case of `ClCCl` it was “active; inactive”; in that of `O=CNNc1nc(-c2ccc([N+](=O)[O-])o2)cs1`, “active; inactive”; in that of `COc1ccc(N)c(C)c1`, “active; inactive”. Regarding `CC(=O)Nc1ccc2c(c1)Cc1ccccc1-2`, the outcome was active. Regarding `Cc1ccccc1N`, the outcome was active. Regarding `CC(O)CCl` (stereo not given), the outcome was active. In the case of `NC(=S)NNC(N)=S` it was “inactive; inconclusive”; in that of `CC(=O)Nc1nc(NC(C)=O)nc(-c2ccc([N+](=O)[O-])o2)n1`, “active; inactive”. In the case of `ClC1=C(Cl)[C@]2(Cl)[C@@H]3[C@H]4C=CC(C4)[C@@H]3C1(Cl)C2(Cl)Cl` it was “inactive; active”.

In the case of `Cc1cc2c(nc1N)[nH]c1ccccc12`, the outcome is “active; inactive”. As to `[Na+]`, the result was inactive. In the case of `O=C(O)c1ccccc1-c1c2cc(I)c(=O)c(I)c-2oc2c(I)c(O)c(I)cc12` it was “inactive”; in that of `C=CC(OC(C)=O)c1ccc2c(c1)OCO2` (stereo not given), “active”; in that of `O=C/C=C/O`, “inactive”.

In the case of `NCCCCCCCCCCC(=O)O`, the outcome was “inactive; active”. For the molecule `C[C@@H]1Cc2c(Cl)cc(C(=O)N[C@@H](Cc3ccccc3)C(=O)O)c(O)c2C(=O)O1`, the result was inactive. In the case of `Cc1cccc(N=Nc2ccc(N(C)C)cc2)c1` it was “active; inactive”; in that of `O=C1c2ccccc2C(=O)c2ccccc21`, “active; inactive”. In the case of `S=P(N1CC1)(N1CC1)N1CC1` it was “active; inactive”.

Turning to `O=NN1CCC1`, the outcome was “active; inactive”. In the case of `Cc1cccn2c1nc1ccc(N)nc12` it was “active”; in that of `C/C=C/C=C/C=O`, “active”; in that of `c1ccc2sc(SSc3nc4ccccc4s3)nc2c1`, “active; inactive”. In the case of `CN(C)c1ccc(C(=C2C=CC(=[N+](C)C)C=C2)c2ccc(N(C)C)cc2)cc1`, the outcome is “inactive; active”.

For `CN(C)P(=O)(N(C)C)N(C)C`, the result was inactive. In the case of `O=[N+]([O-])c1ccc(Nc2ccc(Nc3ccccc3)c(S(=O)(=O)O)c2)c([N+](=O)[O-])c1` it was “active; inactive”; in that of `O=C(O)COc1cc(Cl)c(Cl)cc1Cl`, “inactive; active”.

As for `Clc1nc(Cl)nc(Nc2ccccc2Cl)n1`, the outcome was inactive. In the case of `[N-]=[N+]=CC(=O)OC[C@H](N)C(=O)O` it was “active”. In the case of `CCCCCCCCCCCCCCCC(=O)OC/C=C(C)/C=C/C=C(C)/C=C/C1=C(C)CCCC1(C)C` it was “inactive; active”.
